Source: patent publication US20230117034A1, “PYRAZOLOTRIAZINES” (Bayer Aktiengesellschaft, priority 2019, published 2023)

Assays:
CDK2/CycE = target: T1, CDK2/CycE (Homo sapiens, UniProt P24941); assay: CDK2/CycE kinase assay (TR-FRET, 2 mM ATP); format: biochemical; conditions: 2 mM ATP (high ATP); median; read-out: CDK2/CyclinE, 2 mM ATP (high ATP), IC50 (median)
T1 construct: purchased ProQinase GmbH (Freiburg, Germany); host or cells: insect cells (Sf9)
Summary of the method: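 Biotin-peptide phosphorylation (0.75 µM substrate, 2 mM ATP final, 25 min, 22 °C) by Sf9-expressed GST-CDK2/GST-CycE, after a 15-min compound pre-binding step. Inhibition scaled between enzyme-free (100%) and uninhibited (0%) wells.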

[1] = target: T2, CDK12 (nuclear staining in CAL-120 cells) (Homo sapiens, UniProt Q9NYV4); assay: CDK12 nuclear protein level: immunofluorescence/high content analysis (CAL-120); format: cell-based; conditions: for DC50: CAL-120 cells, 24 h, immunofluorescence, 50% reduction of nuclear CDK12 staining intensity, median, read-out: CDK12 degradation IF, DC50- [mol/l] (median); for (IC50 CDK12 high ATP) to (Degradation DC50 CDK12) ratio: ratio of IC50 CDK12 high ATP kinase assay to DC50 CDK12 degradation (IF, CAL-120)
T2 construct: endogenous in cells; host or cells: CAL-120 human breast cancer cells (DSMZ ACC 459)
Summary of the method: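 DC50 is the degrader concentration that halves nuclear CDK12 immunofluorescence relative to controls, measured by high-content imaging. CAL-120 cells were exposed to compound for 24 h at 37 °C before PFA fixation, and signal was normalized to DMSO and control wells.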

[2] = tested on: CAL-120, human breast adenocarcinoma cells; assay: Proliferation assay CAL-120 (crystal violet, 4 days); format: cell-based; conditions: Homo sapiens, CAL-120, 96 h, CAL-120 cells, median, read-out: Prolif-CAL-120, IC50-[mol/l] (median)
Summary of the method: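 Growth was measured by crystal violet staining after cells had been treated with compounds (0.01-10 µmol/L, 0.1% DMSO) for 4 days, beginning 24 h after seeding. Values were normalized to a zero-point plate and to untreated controls, and IC50 values were derived by a four-parameter fit.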

T2 sequence (Q9NYV4 whole entry): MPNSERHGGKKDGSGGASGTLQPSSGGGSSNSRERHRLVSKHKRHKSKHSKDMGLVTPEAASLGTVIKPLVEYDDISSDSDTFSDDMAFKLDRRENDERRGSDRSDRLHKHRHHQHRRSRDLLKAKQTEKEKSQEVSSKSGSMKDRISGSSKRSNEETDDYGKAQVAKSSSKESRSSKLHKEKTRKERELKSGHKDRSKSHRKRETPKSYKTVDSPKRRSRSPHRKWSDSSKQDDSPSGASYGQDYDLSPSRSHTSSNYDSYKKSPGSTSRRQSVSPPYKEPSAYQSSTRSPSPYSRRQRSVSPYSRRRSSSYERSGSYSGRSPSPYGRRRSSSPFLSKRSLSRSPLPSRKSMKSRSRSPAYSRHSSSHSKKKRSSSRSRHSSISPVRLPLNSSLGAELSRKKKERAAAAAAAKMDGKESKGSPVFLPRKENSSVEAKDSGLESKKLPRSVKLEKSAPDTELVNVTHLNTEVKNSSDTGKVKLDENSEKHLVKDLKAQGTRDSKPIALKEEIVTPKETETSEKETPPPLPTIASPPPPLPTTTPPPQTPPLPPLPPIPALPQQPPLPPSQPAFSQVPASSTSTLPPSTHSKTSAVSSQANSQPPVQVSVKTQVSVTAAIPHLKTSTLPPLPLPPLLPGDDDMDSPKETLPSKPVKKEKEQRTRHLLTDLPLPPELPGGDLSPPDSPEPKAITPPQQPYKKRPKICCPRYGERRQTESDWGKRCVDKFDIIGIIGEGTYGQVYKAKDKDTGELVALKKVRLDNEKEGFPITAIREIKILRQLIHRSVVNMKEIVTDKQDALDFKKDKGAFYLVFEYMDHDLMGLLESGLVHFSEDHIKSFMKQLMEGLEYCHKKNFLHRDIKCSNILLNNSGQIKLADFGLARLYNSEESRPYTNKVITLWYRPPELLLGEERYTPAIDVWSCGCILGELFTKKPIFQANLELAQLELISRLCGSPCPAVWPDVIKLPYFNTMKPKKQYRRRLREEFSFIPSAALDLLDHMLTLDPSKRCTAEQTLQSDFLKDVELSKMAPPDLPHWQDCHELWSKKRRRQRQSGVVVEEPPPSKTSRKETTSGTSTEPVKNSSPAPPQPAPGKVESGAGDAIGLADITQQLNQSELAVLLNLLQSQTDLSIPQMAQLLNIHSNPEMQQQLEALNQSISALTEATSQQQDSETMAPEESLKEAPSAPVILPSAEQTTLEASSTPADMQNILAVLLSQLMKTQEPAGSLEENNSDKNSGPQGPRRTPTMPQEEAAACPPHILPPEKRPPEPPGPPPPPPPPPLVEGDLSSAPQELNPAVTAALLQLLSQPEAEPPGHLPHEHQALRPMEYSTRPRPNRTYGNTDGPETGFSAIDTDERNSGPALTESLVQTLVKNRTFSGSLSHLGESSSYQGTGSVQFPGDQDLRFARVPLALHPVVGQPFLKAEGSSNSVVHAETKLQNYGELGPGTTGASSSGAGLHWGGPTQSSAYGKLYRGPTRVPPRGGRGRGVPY
T2 sequence (O75909 whole entry partner): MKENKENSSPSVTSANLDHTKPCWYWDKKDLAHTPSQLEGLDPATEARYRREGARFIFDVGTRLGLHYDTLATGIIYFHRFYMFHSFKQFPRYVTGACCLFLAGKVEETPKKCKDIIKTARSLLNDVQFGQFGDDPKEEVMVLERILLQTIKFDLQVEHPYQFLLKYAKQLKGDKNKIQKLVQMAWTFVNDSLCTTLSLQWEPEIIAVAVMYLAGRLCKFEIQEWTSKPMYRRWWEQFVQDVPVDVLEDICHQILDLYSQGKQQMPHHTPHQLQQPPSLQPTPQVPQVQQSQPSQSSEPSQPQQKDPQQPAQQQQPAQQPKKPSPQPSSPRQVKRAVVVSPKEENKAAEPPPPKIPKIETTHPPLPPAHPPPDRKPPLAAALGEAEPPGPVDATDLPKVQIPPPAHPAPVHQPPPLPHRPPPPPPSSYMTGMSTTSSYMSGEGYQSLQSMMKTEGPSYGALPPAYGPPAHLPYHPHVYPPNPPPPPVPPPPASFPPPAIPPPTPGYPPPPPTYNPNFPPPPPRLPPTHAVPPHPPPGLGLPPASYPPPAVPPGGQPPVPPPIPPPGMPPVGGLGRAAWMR

SMILES | IC50 (CDK2/CycE) [nM] | DC50 [1] [nM] | (IC50 CDK12 high ATP) to (Degradation DC50 CDK12) ratio [1] | IC50 [2] [nM]
CCc1cnn2c(NCc3nc4c(OC)cccc4[nH]3)nc(N3CCOCC3)nc12 [Example 433, 8-ethyl-N-[(4-methoxy-1H-benzimidazol-2-yl)methyl]-2-(morpholin-4-yl)pyrazolo[1,5-a][1,3,5]triazin-4-amine] | 1780 | 4.32 | 626 | 13.1
OC[C@H]1CCCCN1c1nc(NCc2nc3ccccc3[nH]2)n2ncc(Br)c2n1 [Example 60, [(2R)-1-(4-{[(1H-benzimidazol-2-yl)methyl]amino}-8-bromopyrazolo[1,5-a][1,3,5]triazin-2-yl)piperidin-2-yl]methanol] | 738 | 9.25 | 202 | 25.7
COc1cccc2nc(CNc3nc(N4CCOCC4)nc4c(-c5ccnnc5)cnn34)[nH]c12.O=C(O)C(F)(F)F [Example 439, trifluoroacetic acid N-[(7-methoxy-1H-benzimidazol-2-yl)methyl]-2-(morpholin-4-yl)-8-(pyridazin-4-yl)pyrazolo[1,5-a][1,3,5]triazin-4-amine] | > 20000 | 4.65 | 850 | 36.3
Fc1ccc2[nH]c(CNc3nc(N4CCOCC4)nc4c(CC(F)F)cnn34)nc2c1F.O=C(O)C(F)(F)F [Example 425, trifluoroacetic acid N-[(4,5-difluoro-1H-benzimidazol-2-yl)methyl]-8-(2,2-difluoroethyl)-2-(morpholin-4-yl)pyrazolo[1,5-a][1,3,5]triazin-4-amine] | > 20000 | 2.51 | 852 | 3.06
Fc1ccc2[nH]c(CNc3nc(N4CCOCC4)nc4c(-c5ccnnc5)cnn34)nc2c1F [Example 417, N-[(4,5-difluoro-1H-benzimidazol-2-yl)methyl]-2-(morpholin-4-yl)-8-(pyridazin-4-yl)pyrazolo[1,5-a][1,3,5]triazin-4-amine] | > 20000 | 2.75 | >2815 | 9.17
Clc1cc2nc(CNc3nc(N4CCOCC4)nc4c(-c5cscn5)cnn34)[nH]c2cc1Cl [Example 424, N-[(5,6-dichloro-1H-benzimidazol-2-yl)methyl]-2-(morpholin-4-yl)-8-(1,3-thiazol-4-yl)pyrazolo [1,5-a][1,3,5]triazin-4-amine] | > 20000 | 38.1 | >524 | 41.1
Fc1cccc2[nH]c(CNc3nc(N4CCN5CCC4CC5)nc4c(C(F)(F)F)cnn34)nc12 [Example 410, 2-(1,4-diazabicyclo[3.2.2]nonan-4-yl)-N-[(4-fluoro-1H-benzimidazol-2-yl)methyl]-8-(trifluoromethyl)pyrazolo[1,5-a][1,3,5]triazin-4-amine] | 10000 | 1.19 | 1336 | 3.07
COc1cccc(-c2nnc(CNc3nc(N4CCOCC4)nc4c(Br)cnn34)[nH]2)c1 [Example 50, 8-bromo-N-{[5-(3-methoxyphenyl)-4H-1,2,4-triazol-3-yl]methyl}-2-(morpholin-4-yl)pyrazolo[1,5-a][1,3,5]triazin-4-amine] | 2330 | 12.5 | 224 | 29.5
Cc1cnn2c(NCc3nc4c(F)c(F)ccc4[nH]3)nc(N3CC4CCC(C3)N4)nc12 [Example 400, 2-(3,8-diazabicyclo[3.2.1]octan-3-yl)-N-[(4,5-difluoro-1H-benzimidazol-2-yl)methyl]-8-methylpyrazolo[1,5-a][1,3,5]triazin-4-amine] | > 20000 | 6.15 | >2712 | 5.23
Clc1cc2nc(CNc3nc(N4CCOCC4)nc4c(-c5ccnnc5)cnn34)[nH]c2cc1Cl.O=C(O)C(F)(F)F [Example 440, trifluoroacetic acid N-[(5,6-dichloro-1H-benzimidazol-2-yl)methyl]-2-(morpholin-4-yl)-8-(pyridazin-4-yl)pyrazolo[1,5-a][1,3,5]triazin-4-amine] | > 20000 | 6.67 | >2996 | 7.39

Second part, the compound after the results:

IC50 (CDK2/CycE) [nM] | DC50 [1] [nM] | (IC50 CDK12 high ATP) to (Degradation DC50 CDK12) ratio [1] | IC50 [2] [nM] | SMILES
6370 | 5 | >3530 | 10.2 | CCc1cnn2c(NCc3nc4ccccc4[nH]3)nc(N3CCN(C)CC3)nc12 [Example 434, N-[(1H-benzimidazol-2-yl)methyl]-8-ethyl-2-(4-methylpiperazin-1-yl)pyrazolo[1,5-a][1,3,5] triazin-4-amine]
> 20000 | 8 | 800 | 11.1 | Cc1cnn2c(NCc3nc4c(F)c(F)ccc4[nH]3)nc(N(C)CC(C)(C)O)nc12 [Example 395, 1-[(4-{[(4,5-difluoro-1H-benzimidazol-2-yl)methyl]amino}-8-methylpyrazolo[1,5-a][1,3,5]triazin-2-yl)(methyl)amino]-2-methylpropan-2-ol]
> 20000 | 39 | >513 | 64.4 | Cn1cc(-c2cnn3c(NCc4nc5c(F)c(F)ccc5[nH]4)nc(N4CCOCC4)nc23)cn1 [Example 418, N-[(4,5-difluoro-1H-benzimidazol-2-yl)methyl]-8-(1-methyl-1H-pyrazol-4-yl)-2-(morpholin-4-yl)pyrazolo[1,5-a][1,3,5]triazin-4-amine]
1220 | 1.55 | 669 | 3.14 | C[C@H]1COCCN1c1nc(NCc2nc3ccccc3[nH]2)n2ncc(Br)c2n1 [Example 57, N-[(1H-benzimidazol-2-yl)methyl]-8-bromo-2-[(3S)-3-methylmorpholin-4-yl]pyrazolo[1,5-a][1,3,5]triazin-4-amine]
> 20000 | 113 | >176 | 135 | Brc1cnn2c(NCc3nc4ccccc4[nH]3)nc(OC3CCOCC3)nc12 [Example 405, N-[(1H-benzimidazol-2-yl)methyl]-8-bromo-2-[(oxan-4-yl)oxy]pyrazolo[1,5-a][1,3,5]triazin-4-amine]
9940 | 22.3 | >897 | 46.8 | Cc1cnn2c(NCc3nc4ccccc4[nH]3)nc(N3CCOCC3)nc12 [Example 393, N-[(1H-benzimidazol-2-yl)methyl]-8-methyl-2-(morpholin-4-yl)pyrazolo[1,5-a][1,3,5]triazin-4-amine]
10700 | 26.1 | 246 | 56.3 | CC1(C)CN(c2nc(NCc3nc4ccccc4[nH]3)n3ncc(Br)c3n2)CCO1 [Example 58, N-[(1H-benzimidazol-2-yl)methyl]-8-bromo-2-(2,2-dimethylmorpholin-4-yl)pyrazolo[1,5-a][1,3,5]triazin-4-amine]
4660 | 5.75 | 1252 | 23.9 | Brc1cnn2c(NCc3nc4ccccc4[nH]3)nc(N3CCCC3)nc12 [Example 47, N-[(1H-benzimidazol-2-yl)methyl]-8-bromo-2-(pyrrolidin-1-yl)pyrazolo[1,5-a][1,3,5]triazin-4-amine]
13900 | 19.4 | >1031 | 55 | Cc1cnn2c(NCc3nc4ccccc4[nH]3)nc(N3CCN(C)CC3)nc12 [Example 396, N-[(1H-benzimidazol-2-yl)methyl]-8-methyl-2-(4-methylpiperazin-1-yl)pyrazolo[1,5-a][1,3,5]triazin-4-amine]
> 20000 | 6.18 | 676 | 7.69 | O=C(O)C(F)(F)F.c1ccc2[nH]c(CNc3nc(N4CCOCC4)nc4c(-c5cncs5)cnn34)nc2c1 [Example 441, trifluoroacetic acid-N-[(1H-benzimidazol-2-yl)methyl]-2-(morpholin-4-yl)-8-(1,3-thiazol-5-yl)pyrazolo[1,5-a][1,3,5]triazin-4-amine (1/1)]
9060 | 5.11 | >3913 | 24.3 | COc1ccccc1-c1nnc(CNc2nc(N3CCOCC3)nc3c(Br)cnn23)[nH]1 [Example 61, 8-bromo-N-{[5-(2-methoxyphenyl)-4H-1,2,4-triazol-3-yl]methyl}-2-(morpholin-4-yl)pyrazolo[1,5-a][1,3,5]triazin-4-amine]
